In US9556165B2 (priority 2012, dated 2017):
≈ marks a conversion by molar mass, not a printed value. Like-named read-outs stand apart in the source and are kept apart here.

Columns and labels:
Type in all cases: cell-based
[1] = system: P. aeruginosa 2297 (AmpC wt); experiment: MIC determination, broth microdilution (CLSI); details: for MIC: Pseudomonas aeruginosa, strain 7
[2] = system: M. morganii 126/3048; experiment: MIC determination, broth microdilution (CLSI); details: for MIC: Morganella morganii, 126/3048, strain 5
[3] = system: A. baumannii ATCC15308; experiment: MIC determination, broth microdilution (CLSI); details: for MIC: Acinetobacter baumannii, ATCC15308, strain 9
[4] = system: C. freundii K21/3034; experiment: MIC determination, broth microdilution (CLSI); details: for MIC: Citrobacter freundii, K21/3034, strain 4
[5] = system: K. pneumoniae 60; experiment: MIC determination, broth microdilution (CLSI); details: for MIC: Klebsiella pneumoniae, 60, strain 2
[6] = system: H. influenzae ATCC 49247; experiment: MIC determination, broth microdilution (CLSI); details: broth microdilution; for MIC: Haemophilus influenzae, ATCC49247, strain 12, read-out: MIC strain 12 (H. influenzae ATCC 49247)
[7] = system: E. coli ATCC25922; experiment: MIC determination, broth microdilution (CLSI); details: for MIC: Escherichia coli, ATCC25922, strain 1
[8] = system: E. cloacae 34654; experiment: MIC determination, broth microdilution (CLSI); details: for MIC: Enterobacter cloacae, 34654, strain 3
[9] = system: E. coli J62; experiment: MIC determination, broth microdilution (CLSI); details: broth microdilution; for MIC: Escherichia coli, J62, strain 17, read-out: MIC strain 17 (E. coli J62)
[10] = system: S. maltophilia ICB7569; experiment: MIC determination, broth microdilution (CLSI); details: strain 10
[11] = system: Bacteria; experiment: MIC determination in combination with β-lactamase inhibitors (constant 4 μg/mL)
[12] = system: P. aeruginosa PAO1; experiment: MIC determination, broth microdilution (CLSI); details: for MIC: Pseudomonas aeruginosa, PAO1, strain 6
[13] = system: P. aeruginosa 2297-con (AmpC derepressed); experiment: MIC determination, broth microdilution (CLSI)
[14] = system: S. pneumoniae 113; experiment: MIC determination, broth microdilution (CLSI); details: broth microdilution; for MIC: Streptococcus pneumoniae, 113, strain 13, read-out: MIC strain 13 (S. pneumoniae 113)
[15] = system: S. aureus 133; experiment: MIC determination, broth microdilution (CLSI)
[16] = system: E. coli J62-TEM-3; experiment: MIC determination, broth microdilution (CLSI); details: broth microdilution; for MIC: Escherichia coli, J62TEM3, read-out: MIC strain 18 (E. coli J62-TEM-3), strain 18
[17] = system: B. fragilis 6688; experiment: MIC determination, broth microdilution (CLSI); details: Bacteroides fragilis, 6688, strain 15; broth microdilution; read-out: MIC strain 15 (B. fragilis 6688)
[18] = system: C. perfringens DSM756; experiment: microbe, parasite or virus in culture; details: Clostridium perfringens, DSM756, read-out: MIC strain 16 (C. perfringens DSM756), strain 16; broth microdilution
[19] = Staphylococcus aureus, 133, strain 11, read-out: strain 11 MIC
[20] = Staphylococcus aureus, 133, strain 14, broth microdilution, read-out: MIC strain 14 (S. aureus 133)

CC1(C)[C@H](NC(=O)/C(=N\OC(COc2ccc(C(=N)NCCN)cc2)C(=O)O)c2csc(N)n2)C(=O)N1OS(=O)(=O)O (mixture of isomers) [Example 44B, (2R and 2S)-3-{4-[N-(2-Aminoethyl)carbamimidoyl]phenoxy}-2-({[(1Z)-1-(2-amino-1,3-thiazol-4-yl)-2-{[(3S)-2,2-dimethyl-4-oxo-1-(sulfooxy)azetidin-3-yl]amino}-2-oxoethylidene]amino}oxy)propanoic acid]
strain 7 MIC [1]: 16 µg/mL
strain 5 MIC ([2]; strain 5): 4 µg/mL
strain 9 MIC ([3]; strain 9): 8 µg/mL
strain 4 MIC ([4]; strain 4): 2 µg/mL
strain 2 MIC ([5]; strain 2): 1 µg/mL
MIC strain 12 (H. influenzae ATCC 49247) ([6]; strain 12): 0.5 µg/mL
strain 1 MIC ([7]; strain 1): 2 µg/mL
strain 3 MIC ([8]; strain 3): 4 µg/mL
MIC strain 17 (E. coli J62) ([9]; strain 17): 2 µg/mL
strain 10 MIC [10]: 16 µg/mL
MIC strain 19 (E. coli J62-TEM-3 + 4 μg/mL clavulanic acid) [11]: 2 µg/mL
MIC strain 20 (E. coli J62-TEM-3 + 4 μg/mL sulbactam) [11]: 2 µg/mL
MIC strain 21 (E. coli J62-TEM-3 + 4 μg/mL tazobactam) [11]: 4 µg/mL
strain 6 MIC ([12]; strain 6): 8 µg/mL
strain 8 MIC ([13]; strain 8): 8 µg/mL
MIC strain 13 (S. pneumoniae 113) ([14]; strain 13): 4 µg/mL
strain 11 MIC ([15]; strain 11): ≦0.063 mg/L
MIC strain 18 (E. coli J62-TEM-3) ([16]; strain 18): 4 µg/mL

CC1(C)[C@H](NC(=O)/C(=N\OCC(Oc2ccc(C(=N)N)cc2)C(=O)O)c2csc(N)n2)C(=O)N1OS(=O)(=O)O (single isomer, unassigned) [Example 87A]
MIC [2]: 0.25 µg/mL (≈ 0.427 µM)
MIC [3]: 8 µg/mL (≈ 13.7 µM)
MIC [4]: 1 µg/mL (≈ 1.71 µM)
MIC [5]: 1 µg/mL (≈ 1.71 µM)
MIC [6]: 0.25 µg/mL (≈ 0.427 µM)
MIC [7]: 1 µg/mL (≈ 1.71 µM)
MIC [17]: 32 µg/mL (≈ 54.6 µM)
MIC [8]: 1 µg/mL (≈ 1.71 µM)
MIC [9]: 2 µg/mL (≈ 3.42 µM)
MIC strain 19 (E. coli J62-TEM-3 + 4 μg/mL clavulanic acid) [11]: 1 µg/mL
MIC strain 20 (E. coli J62-TEM-3 + 4 μg/mL sulbactam) [11]: 1 µg/mL
MIC strain 21 (E. coli J62-TEM-3 + 4 μg/mL tazobactam) [11]: 2 µg/mL
MIC [12]: 32 µg/mL (≈ 54.6 µM)
MIC [14]: 0.5 µg/mL (≈ 0.854 µM)
MIC [18]: 8 µg/mL (≈ 13.7 µM)
MIC [15, 19]: ≤ 0.063 µg/mL
MIC [16]: 32 µg/mL (≈ 54.6 µM)

C[C@H]1[C@H](NC(=O)/C(=N\OCCOc2ccc(C(=N)N)cc2)c2csc(N)n2)C(=O)N1OS(=O)(=O)O [Example 47, (2Z)-2-(2-Amino-1,3-thiazol-4-yl)-2-{[2-(4-carbamimidoylphenoxy)ethoxy]imino}-N-[(2S,3S)-2-methyl-4-oxo-1-(sulfooxy)azetidin-3-yl]ethanamide]
MIC [1]: 2 µg/mL (≈ 3.79 µM)
MIC [2]: 2 µg/mL (≈ 3.79 µM)
MIC [3]: 2 µg/mL (≈ 3.79 µM)
MIC [4]: 0.5 µg/mL (≈ 0.948 µM)
MIC [5]: 0.5 µg/mL (≈ 0.948 µM)
MIC [6]: 0.125 µg/mL (≈ 0.237 µM)
MIC [7]: 0.25 µg/mL (≈ 0.474 µM)
MIC [17]: 16 µg/mL (≈ 30.3 µM)
MIC [8]: 1 µg/mL (≈ 1.9 µM)
MIC [9]: 0.5 µg/mL (≈ 0.948 µM)
MIC strain 19 (E. coli J62-TEM-3 + 4 μg/mL clavulanic acid) [11]: 0.5 µg/mL
MIC strain 20 (E. coli J62-TEM-3 + 4 μg/mL sulbactam) [11]: 0.5 µg/mL
MIC strain 21 (E. coli J62-TEM-3 + 4 μg/mL tazobactam) [11]: 0.5 µg/mL
MIC [12]: 4 µg/mL (≈ 7.58 µM)
MIC [14]: 0.125 µg/mL (≈ 0.237 µM)
MIC [18]: 1 µg/mL (≈ 1.9 µM)
MIC [15, 19]: ≤ 0.063 µg/mL
MIC [15, 20]: 1 µg/mL (≈ 1.9 µM)
MIC [16]: 32 µg/mL (≈ 60.7 µM)

CC1(C)[C@H](NC(=O)/C(=N\OCCCOc2ccc(C(=N)N)cc2)c2csc(N)n2)C(=O)N1OS(=O)(=O)O [Example 58, (2Z)-2-(2-Amino-1,3-thiazol-4-yl)-2-{[3-(4-carbamimidoylphenoxy)propoxy]imino}-N-[(3S)-2,2-dimethyl-4-oxo-1-(sulfooxy)azetidin-3-yl]ethanamide]
MIC [1]: 32 µg/mL (≈ 57.6 µM)
MIC [2]: 1 µg/mL (≈ 1.8 µM)
MIC [3]: 16 µg/mL (≈ 28.8 µM)
MIC [4]: 1 µg/mL (≈ 1.8 µM)
MIC [5]: 4 µg/mL (≈ 7.2 µM)
MIC [6]: 0.5 µg/mL (≈ 0.9 µM)
MIC [7]: 2 µg/mL (≈ 3.6 µM)
MIC [17]: 4 µg/mL (≈ 7.2 µM)
MIC [8]: 4 µg/mL (≈ 7.2 µM)
MIC [9]: 4 µg/mL (≈ 7.2 µM)
MIC strain 19 (E. coli J62-TEM-3 + 4 μg/mL clavulanic acid) [11]: 2 µg/mL
MIC strain 20 (E. coli J62-TEM-3 + 4 μg/mL sulbactam) [11]: 2 µg/mL
MIC strain 21 (E. coli J62-TEM-3 + 4 μg/mL tazobactam) [11]: 2 µg/mL
MIC [12]: 16 µg/mL (≈ 28.8 µM)
MIC ([13]; Pseudomonas aeruginosa, read-out: strain 8 MIC, strain 8): 16 µg/mL (≈ 28.8 µM)
MIC [14]: ≤ 0.063 µg/mL
MIC [18]: 4 µg/mL (≈ 7.2 µM)
MIC [15, 19]: ≤ 0.063 µg/mL
MIC [15, 20]: 4 µg/mL (≈ 7.2 µM)
MIC [16]: 32 µg/mL (≈ 57.6 µM)
